# Active and inactive are the calls of the source. No cut-off for these calls is given here.
# Tested on: Legionella pneumophila 130b
# Assay: Inhibition of recombinant Legionella pneumophila 130b His6-tagged NTPDase (41 to 393 residues) expressed in Escherichia coli BL21(DE3) cells using ADP as substrate at 30 uM incubated for 10 mins by capillary electrophoresis method relative to control
# Details: not given
row,SMILES,inhibition
1,Nc1c(S(=O)(=O)O)cc(Nc2ccc3cc(C(=O)O)ccc3c2)c2c1C(=O)c1ccccc1C2=O,32%
2,Nc1c(S(=O)(=O)O)cc(NC2CCCCC2)c2c1C(=O)c1ccccc1C2=O,22%
3,Nc1c(S(=O)(=O)O)cc(Nc2ccc(Nc3nc(Cl)nc(Nc4ccccc4S(=O)(=O)O)n3)c(S(=O)(=O)O)c2)c2c1C(=O)c1ccccc1C2=O,45%
4,Nc1c(S(=O)(=O)O)cc(Nc2cc3ccccc3c3ccccc23)c2c1C(=O)c1ccccc1C2=O,90%
5,Cc1ccccc1Nc1cc(S(=O)(=O)O)c(N)c2c1C(=O)c1ccccc1C2=O,44%
6,Nc1c(S(=O)(=O)O)cc(NCCc2ccccc2)c2c1C(=O)c1ccccc1C2=O,inactive
7,Nc1c(S(=O)(=O)O)cc(Nc2ccc(Cl)cc2)c2c1C(=O)c1ccccc1C2=O,66%
8,Nc1c(S(=O)(=O)O)cc(Nc2ccc3ccccc3c2)c2c1C(=O)c1ccccc1C2=O,51%
9,Cc1ccc2ccccc2c1Nc1cc(S(=O)(=O)O)c(N)c2c1C(=O)c1ccccc1C2=O,76%
10,Nc1c(S(=O)(=O)O)cc(Nc2ccccc2F)c2c1C(=O)c1ccccc1C2=O,inactive
11,CCOP(=O)(Cc1ccc(Nc2cc(S(=O)(=O)O)c(N)c3c2C(=O)c2ccccc2C3=O)cc1)OCC,inactive
12,Nc1c(S(=O)(=O)O)cc(Nc2cccc([N+](=O)[O-])c2)c2c1C(=O)c1ccccc1C2=O,44%
13,Nc1c(S(=O)(=O)O)cc(Nc2cccc3c(S(=O)(=O)O)cccc23)c2c1C(=O)c1ccccc1C2=O,26%
14,Nc1c(S(=O)(=O)O)cc(Nc2ccccc2)c2c1C(=O)c1ccccc1C2=O,31%
15,Cc1cc(C)c(Nc2cc(S(=O)(=O)O)c(N)c3c2C(=O)c2ccccc2C3=O)c(C)c1,44%
16,CCCNc1cc(S(=O)(=O)O)c(N)c2c1C(=O)c1ccccc1C2=O,inactive
17,Nc1c(S(=O)(=O)O)cc(Nc2cccc3cc(S(=O)(=O)O)ccc23)c2c1C(=O)c1ccccc1C2=O,30%
18,CCc1ccccc1Nc1cc(S(=O)(=O)O)c(N)c2c1C(=O)c1ccccc1C2=O,39%
19,Nc1c(S(=O)(=O)O)cc(Nc2ccc(Nc3nc(Cl)nc(Cl)n3)c(S(=O)(=O)O)c2)c2c1C(=O)c1ccccc1C2=O,8%
20,Cc1cccc(Nc2cc(S(=O)(=O)O)c(N)c3c2C(=O)c2ccccc2C3=O)c1,53%
21,Nc1c(S(=O)(=O)O)cc(Nc2cccc3ccccc23)c2c1C(=O)c1ccccc1C2=O,62%
22,COc1ccccc1Oc1ccc(Nc2cc(S(=O)(=O)O)c(N)c3c2C(=O)c2ccccc2C3=O)cc1,28%
23,Nc1c(S(=O)(=O)O)cc(Nc2cccc(Br)c2)c2c1C(=O)c1ccccc1C2=O,44%

# Tested on: not listed separately
# Assay: Inhibition of recombinant Legionella pneumophila 130b His6-tagged NTPDase (41 to 393 residues) expressed in Escherichia coli BL21(DE3) cells using ADP as substrate incubated for 10 mins by capillary electrophoresis method
# Details: not given
row,SMILES,IC50 [µM]
1,Nc1c(S(=O)(=O)O)cc(Nc2cc3ccccc3c3ccccc23)c2c1C(=O)c1ccccc1C2=O,4.24
2,Nc1c(S(=O)(=O)O)cc(Nc2ccc(Cl)cc2)c2c1C(=O)c1ccccc1C2=O,17.6
3,Cc1ccc2ccccc2c1Nc1cc(S(=O)(=O)O)c(N)c2c1C(=O)c1ccccc1C2=O,13.6
4,Nc1c(S(=O)(=O)O)cc(Nc2cccc3ccccc23)c2c1C(=O)c1ccccc1C2=O,12.2

# Tested on: not listed separately
# Assay: Inhibition of recombinant Legionella pneumophila 130b His6-tagged NTPDase (41 to 393 residues) expressed in Escherichia coli BL21(DE3) cells using ADP as substrate incubated for 10 mins by Cheng-Prusoff equation analysis
# Details: not given
row,SMILES,Ki [µM]
1,Nc1c(S(=O)(=O)O)cc(Nc2cc3ccccc3c3ccccc23)c2c1C(=O)c1ccccc1C2=O,2.99
2,Nc1c(S(=O)(=O)O)cc(Nc2ccc(Cl)cc2)c2c1C(=O)c1ccccc1C2=O,12.4
3,Cc1ccc2ccccc2c1Nc1cc(S(=O)(=O)O)c(N)c2c1C(=O)c1ccccc1C2=O,9.58
4,Nc1c(S(=O)(=O)O)cc(Nc2cccc3ccccc23)c2c1C(=O)c1ccccc1C2=O,8.59

# Tested on: Legionella pneumophila 130b
# Assay: Competitive inhibition of recombinant Legionella pneumophila 130b His6-tagged NTPDase (41 to 393 residues) expressed in Escherichia coli BL21(DE3) cells at 3 to 6 uM incubated for 10 mins in presence of varying levels of ADP by Lineweaver-Burk plot analysis
# Details: not given
row,SMILES,inhibition
1,Nc1c(S(=O)(=O)O)cc(Nc2cc3ccccc3c3ccccc23)c2c1C(=O)c1ccccc1C2=O,Active

# Biological target: T1, Ectonucleoside triphosphate diphosphohydrolase 1 (Homo sapiens, UniProt P49961)
# T1 sequence (P49961 whole entry): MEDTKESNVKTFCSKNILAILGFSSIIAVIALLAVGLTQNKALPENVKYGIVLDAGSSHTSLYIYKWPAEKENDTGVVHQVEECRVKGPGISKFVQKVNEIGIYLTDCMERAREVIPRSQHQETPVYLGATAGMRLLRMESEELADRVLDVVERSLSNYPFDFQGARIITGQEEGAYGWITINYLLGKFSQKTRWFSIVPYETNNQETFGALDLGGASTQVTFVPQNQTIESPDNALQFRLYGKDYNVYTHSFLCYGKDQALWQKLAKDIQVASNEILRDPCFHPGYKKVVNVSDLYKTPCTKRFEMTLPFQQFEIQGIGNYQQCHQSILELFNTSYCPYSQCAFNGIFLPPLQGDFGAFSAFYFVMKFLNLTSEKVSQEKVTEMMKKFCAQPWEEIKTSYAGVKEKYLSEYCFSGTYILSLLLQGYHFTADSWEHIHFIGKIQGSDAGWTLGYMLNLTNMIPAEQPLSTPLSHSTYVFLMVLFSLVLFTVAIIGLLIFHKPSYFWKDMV
# Assay: Inhibition of recombinant human NTPDase1 expressed in CHO cells using ADP as substrate incubated for 10 mins by capillary electrophoresis method
# Details: not given
row,SMILES,IC50 [µM]
1,Nc1c(S(=O)(=O)O)cc(Nc2cc3ccccc3c3ccccc23)c2c1C(=O)c1ccccc1C2=O,20

# Biological target: T2, Ectonucleoside triphosphate diphosphohydrolase 2 (Homo sapiens, UniProt Q9Y5L3)
# T2 sequence (Q9Y5L3 whole entry): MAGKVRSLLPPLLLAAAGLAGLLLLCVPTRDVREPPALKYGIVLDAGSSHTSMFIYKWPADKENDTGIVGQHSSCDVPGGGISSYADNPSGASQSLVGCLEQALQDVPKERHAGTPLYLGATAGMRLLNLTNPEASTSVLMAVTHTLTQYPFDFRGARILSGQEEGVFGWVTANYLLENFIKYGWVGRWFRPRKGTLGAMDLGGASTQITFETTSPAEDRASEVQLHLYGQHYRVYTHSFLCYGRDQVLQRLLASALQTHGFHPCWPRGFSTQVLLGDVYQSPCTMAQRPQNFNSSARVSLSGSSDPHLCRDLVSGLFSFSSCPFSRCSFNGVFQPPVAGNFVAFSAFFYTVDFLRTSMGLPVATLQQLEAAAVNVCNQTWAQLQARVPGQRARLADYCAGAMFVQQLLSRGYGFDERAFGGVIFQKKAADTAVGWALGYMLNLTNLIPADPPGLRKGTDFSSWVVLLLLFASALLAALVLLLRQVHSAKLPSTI
# Assay: Inhibition of recombinant human NTPDase2 expressed in CHO cells using ADP as substrate incubated for 10 mins by capillary electrophoresis method
# Details: not given
row,SMILES,IC50 [µM]
1,Nc1c(S(=O)(=O)O)cc(Nc2cc3ccccc3c3ccccc23)c2c1C(=O)c1ccccc1C2=O,3

# Biological target: T3, Ectonucleoside triphosphate diphosphohydrolase 3 (Homo sapiens) (UniProt O75355)
# T3 sequence (whole entry): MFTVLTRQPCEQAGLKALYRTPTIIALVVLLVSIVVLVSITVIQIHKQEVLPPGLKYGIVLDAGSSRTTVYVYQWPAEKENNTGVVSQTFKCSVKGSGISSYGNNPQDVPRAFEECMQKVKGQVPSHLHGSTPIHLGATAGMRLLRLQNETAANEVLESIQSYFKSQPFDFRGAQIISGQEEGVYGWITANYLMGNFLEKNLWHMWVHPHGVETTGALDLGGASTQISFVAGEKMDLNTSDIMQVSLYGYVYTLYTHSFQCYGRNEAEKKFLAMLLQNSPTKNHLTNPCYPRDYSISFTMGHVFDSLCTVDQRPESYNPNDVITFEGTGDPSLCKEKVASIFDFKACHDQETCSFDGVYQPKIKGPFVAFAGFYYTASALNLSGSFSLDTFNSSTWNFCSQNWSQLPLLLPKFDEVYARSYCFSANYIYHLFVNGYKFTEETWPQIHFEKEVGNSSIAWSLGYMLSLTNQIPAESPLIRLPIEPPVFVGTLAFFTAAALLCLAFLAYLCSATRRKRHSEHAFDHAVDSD
# Assay: Inhibition of recombinant human NTPDase3 expressed in mouse NS0 cells using ADP as substrate at 30 uM incubated for 10 mins by capillary electrophoresis method relative to control
# Details: not given
row,SMILES,inhibition [%]
1,Nc1c(S(=O)(=O)O)cc(Nc2cc3ccccc3c3ccccc23)c2c1C(=O)c1ccccc1C2=O,18

# Biological target: not listed separately
# Assay: Inhibition of Legionella pneumophila NTPDase
# Details: not given
row,SMILES,Ki [µM]
1,CCN(CC)c1ncnc2c1ncn2[C@@H]1O[C@H](COP(=O)(O)OP(=O)(O)OC(Br)(Br)P(=O)(O)O)[C@@H](O)[C@H]1O,500

# Tested on: Legionella pneumophila 130b
# Details: 3 uM
row,SMILES,Km [µM]
1,Nc1c(S(=O)(=O)O)cc(Nc2cc3ccccc3c3ccccc23)c2c1C(=O)c1ccccc1C2=O,623

# Tested on: Legionella pneumophila 130b
# Details: 6 uM
row,SMILES,Km [µM]
1,Nc1c(S(=O)(=O)O)cc(Nc2cc3ccccc3c3ccccc23)c2c1C(=O)c1ccccc1C2=O,710

# Tested on: Legionella pneumophila 130b
# Details: 3 uM
# Remark: another data set of the same source
row,SMILES,Vmax [µmol/min/mg]
1,Nc1c(S(=O)(=O)O)cc(Nc2cc3ccccc3c3ccccc23)c2c1C(=O)c1ccccc1C2=O,327

# Tested on: Legionella pneumophila 130b
# Details: 6 uM
# Remark: another data set of the same source
row,SMILES,Vmax [µmol/min/mg]
1,Nc1c(S(=O)(=O)O)cc(Nc2cc3ccccc3c3ccccc23)c2c1C(=O)c1ccccc1C2=O,272

# — ChEMBL document CHEMBL3826900, “Inhibitors for the bacterial ectonucleotidase Lp1NTPDase from Legionella pneumophila” (Bioorg Med Chem, 2016)
